Source: patent US6632816B1, “Aromatic derivatives as HIV aspartyl protease inhibitors” (Pharmacor Inc., priority 2002, dated 2003)

Key:
[1] = test system: HIV-1 laboratory viral strain NL4.3 (wild type virus); experiment: Anti-viral assay in vitro (MTT, infected MT-4 cells); format: cell-based; settings: Human immunodeficiency virus 1, MT4, 144 h; MT-4 cells infected with NL4.3, six days, MTT assay; read-out: EC50
Method: Anti-viral and Cytotoxicity Assays In Vitro
To evaluate the EC50 of our compounds, various drug concentrations are incubated with the infected cell for six days and then the metabolic activity of the cells is monitored by the MTT assay. (See A. J. Japour et al, Antimicrobial Agents and Chemotherapy, 37, 1095-1101, 1993 and R. Pauwels et al. Journal of Virological Methods, 20, 309-321, 1988)
We use the laboratory viral strain NL4.3 as wild type virus and the cell line used is MT-4 which is a T-cell line highly sensitive to HIV-1. We also use some WT clinical strains. To address the resistance issue we assay the inhibitors with NL4.3 mutants which are designed to be resistant to specific commercially,available inhibitors

HIV protease = HIV protease (Human immunodeficiency virus type 1 group M subtype B, UniProt P04585); experiment: biochemical

SMILES | EC50 [1] [nM] | Ki (HIV protease) [nM]
CC(C)CN([C@H](CO)CCCCNC(=O)[C@H](Cc1cccc2ccccc12)NC(=O)N1CCOCC1)S(=O)(=O)c1ccc2c(c1)OCO2 [Example 66, (1S,5S)-Morpholine-4-carboxylic Acid (1-{5-[(Benzo[1,3]dioxole-5-sulfonyl)-isobutyl-amino]-6-hydroxy-hexylcarbamoyl}-2-naphthalen-1-yl-ethyl)-amide] | 409 | 1.1
COC(=O)NC(Cc1ccccc1-c1ccccc1)C(=O)NCCCC(CO)N(CC(C)C)S(=O)(=O)c1ccc(N)cc1 [Example 3, (1R,S,4S)-(1-{4-[(4-Amino-benzenesulfonyl)-isobutyl-amino]-5-hydroxy-pentylcarbamoyl}-2-biphenyl-2-yl-ethyl)-carbamic Acid Methyl Ester] | 64 | 2.4
COC(=O)N[C@@H](Cc1ccccc1-c1ccc(OC)cc1)C(=O)NCCCC[C@@H](CO)N(CC(C)C)S(=O)(=O)c1ccc(N)cc1 [Example 31, (1S,5S)-[1-{5-[(4-Amino-benzenesulfonyl)-isobutyl-amino]-6-hydroxy-hexylcarbamoyl}-2-(4′-methoxy-biphenyl-2-yl)-ethyl]-carbamic Acid Methyl Ester] | 118 | 0.667
COC(=O)N[C@H](C(=O)NCCCC[C@@H](CO)N(CC(C)C)S(=O)(=O)c1ccc(F)cc1)C(c1ccccc1)c1ccccc1 [Example 78, (1S,5S)-(1-{5-[(4-Fluoro-benzenesulfonyl)-isobutyl-amino]-6-hydroxy-hexylcarbamoyl}-2,2-diphenyl-ethyl)-carbamic Acid Methyl Ester] | 94 | < 3.8
COC(=O)N[C@H](C(=O)NCCCC[C@@H](CO)N(CC(C)C)S(=O)(=O)c1ccc2c(c1)OCO2)C(c1ccccc1)c1ccccc1 [Example 67, (1S,5S)-(1-{5-[(Benzo[1,3]dioxole-5-sulfonyl)-isobutyl-amino]-6-hydroxy-hexylcarbamoyl}-2,2-diphenyl-ethyl)-carbamic Acid Methyl Ester] | 146 | –
COC(=O)N[C@@H](Cc1ccc2ccccc2c1)C(=O)NCCC[C@@H](CO)N(CC(C)C)S(=O)(=O)c1ccc(N)cc1 [Example 1, (1S,4S)-(1-{4-[(4-Amino-benzenesulfonyl)-isobutyl-amino]-5-hydroxy-pentylcarbamoyl}-2-naphthalen-2-yl-ethyl)-carbamic Acid Methyl Ester] | 1470 | 7.3
CC(C)CN([C@H](CO)CCCCNC(=O)[C@H](Cc1ccc2ccccc2c1)NC(=O)C1CC1)S(=O)(=O)c1ccc(N)cc1 [Example 47, (1S,5S)-Cyclopropanecarboxylic Acid (1-{5-[(4-Amino-benzenesulfonyl)-isobutyl-amino]-6-hydroxy-hexylcarbamoyl}-2-naphthalen-2-yl-ethyl)-amide] | 323 | 1.4
CC(C)CN([C@H](CO)CCCCNC(=O)[C@H](Cc1ccc2ccccc2c1)NC(=O)c1cnccn1)S(=O)(=O)c1ccc(N)cc1 [Example 62, (1S,5S)-Pyrazine-2-carboxylic Acid (1-{5-[(4-Amino-benzenesulfonyl)-isobutyl-amino]-6-hydroxy-hexylcarbamoyl}-2-naphthalen-2-yl-ethyl)-amide] | 361 | 2.1
COc1ccc(S(=O)(=O)N(CC(C)C)[C@H](CO)CCCCNC(=O)[C@H](Cc2cccc3ccccc23)NC(=O)N2CCOCC2)cc1 [Example 45, (1S,5S)-Morpholine-4-carboxylic Acid (1-{6-Hydroxy-5-[isobutyl-(4-methoxy-benzenesulfonyl)-amino]-hexylcarbamoyl}-2-naphthalen-1-yl-ethyl)-amide] | 597 | 1.5
CC(C)CN([C@H](CO)CCCCNC(=O)[C@@H](NC(=O)N1CCOCC1)C(c1ccccc1)c1ccccc1)S(=O)(=O)c1ccc(N)cc1 [Example 40, (1S,5S)-Morpholine-4-carboxylic Acid (1-{5-[(4-Amino-benzenesulfonyl)-isobutyl-amino]-6-hydroxy-hexylcarbamoyl}-2,2-diphenyl-ethyl)-amide] | 78 | 0.512
CC(C)CN([C@H](CO)CCCCNC(=O)[C@H](Cc1ccc2ccccc2c1)NC(=O)CC(F)(F)F)S(=O)(=O)c1ccc(N)cc1 [Example 61, (1S,5S)-N-(1-{5-[(4-Amino-benzenesulfonyl)-isobutyl-amino]-6-hydroxy-hexylcarbamoyl}-2-naphthalen-2-yl-ethyl)-3,3,3-trifluoro-propionamide] | 161 | –
CC(C)CN([C@H](CO)CCCCNC(=O)[C@@H](NC(=O)c1ccc(O)nc1)C(c1ccccc1)c1ccccc1)S(=O)(=O)c1ccc(N)cc1 [Example 110, (1S,5S)-N-(1-{5-[(4-Amino-benzenesulfonyl)-isobutyl-amino]-6-hydroxy-hexylcarbamoyl}-2,2-diphenyl-ethyl)-6-hydroxy-nicotinamide] | – | < 3.8
CC(C)CN[C@@H](Cc1cccc2ccccc12)C(=O)NCCC[C@@H](CO)N(CC(C)C)S(=O)(=O)c1ccc(N)cc1 [Example 25, (2S,4S)-N-{4-[(4-Amino-benzenesulfonyl)-isobutyl-amino]-5-hydroxy-pentyl}-2-isobutylamino-3-naphthalen-1-yl-propionamide] | – | 3.7
COC(=O)N[C@@H](Cc1ccc2ccccc2c1)C(=O)NCCCC[C@@H](CO)N(CC(C)C)S(=O)(=O)c1ccc(F)c(N)c1 [Example 82, (1S,5S)-(1-{5-[(3-Amino-4-fluoro-benzenesulfonyl)-isobutyl-amino]-6-hydroxy-hexylcarbamoyl}-2-naphthalen-2-yl-ethyl)-carbamic Acid Methyl Ester] | – | < 3.8
CC(C)CN([C@H](CO)CCCCNC(=O)[C@H](Cc1ccc2ccccc2c1)NC(=O)c1ccncc1)S(=O)(=O)c1ccc(F)c(N)c1 [Example 84, (1S,5S)-N-(1-{5-[(3-Amino-4-fluoro-benzenesulfonyl)-isobutyl-amino]-6-hydroxy-hexylcarbamoyl}-2-naphthalen-2-yl-ethyl)-isonicotinamide] | – | < 3.8
CCCN[C@@H](Cc1cccc2ccccc12)C(=O)NCCC[C@@H](CO)N(CC(C)C)S(=O)(=O)c1ccc(N)cc1 [Example 22, (2S,4S)-N-{4-[(4-Amino-benzenesulfonyl)-isobutyl-amino]-5-hydroxy-pentyl}-3-naphthalen-1-yl-2-propylamino-propionamide] | – | 2.5
CC(C)CN([C@H](CO)CCCNC(=O)[C@H](Cc1cccc2ccccc12)NC(=O)C1CCCCC1)S(=O)(=O)c1ccc(N)cc1 [Example 13, (1S,4S)-Cyclohexanecarboxylic Acid (1-{4-[(4-Amino-benzenesulfonyl)-isobutyl-amino]-5-hydroxy-pentylcarbamoyl}-2-naphthalen-1-yl-ethyl)-amide] | – | 2.3
CC(C)CN([C@H](CO)CCCCNC(=O)[C@@H](NC(=O)OCc1cccnc1)C(c1ccccc1)c1ccccc1)S(=O)(=O)c1ccc(N)cc1 [Example 100, (1S,5S)-(1-{5-[(4-Amino-benzenesulfonyl)-isobutyl-amino]-6-hydroxy-hexylcarbamoyl}-2,2-diphenyl-ethyl)-carbamic Acid Pyridin-3-ylmethyl Ester] | – | < 3.8
CC(C)CN([C@H](CO)CCCCNC(=O)[C@@H](N)Cc1ccc2ccccc2c1)S(=O)(=O)c1ccc(F)c(N)c1 [Example 81, (2S,5S)-2-Amino-N-{5-[(3-amino-4-fluoro-benzenesulfonyl)-isobutyl-amino]-6-hydroxy-hexyl}-3-naphthalen-2-yl-propionamide] | – | < 3.8
CC(C)CN([C@H](CO)CCCCNC(=O)[C@@H](N)Cc1ccc2ccccc2c1)S(=O)(=O)c1ccc(N)c(F)c1 [Example 113, (2S,5S)-2-Amino-N-{5-[(4-amino-3-fluoro-benzenesulfonyl)-isobutyl-amino]-6-hydroxy-hexyl}-3-naphthalen-2-yl-propionamide] | – | < 3.8
CC(C)CN([C@H](CO)CCCCNC(=O)[C@H](Cc1ccc2ccccc2c1)NC(=O)c1cnc[nH]1)S(=O)(=O)c1ccc(F)c(N)c1 [Example 114, (1S,5S)-3H-Imidazole-4-carboxylic Acid (1-{5-[(3-Amino-4-fluoro-benzenesulfonyl)-isobutyl-amino]-6-hydroxy-hexylcarbamoyl}-2-naphthalen-2-yl-ethyl)-amide] | – | < 3.8
CC(C)CN([C@H](CO)CCCNC(=O)[C@H](Cc1cccc2ccccc12)NC(=O)CC(F)(F)F)S(=O)(=O)c1ccc(N)cc1 [Example 12, (1S,4S)-N-(1-{4-[(4-Amino-benzenesulfonyl)-isobutyl-amino]-5-hydroxy-pentylcarbamoyl}-2-naphthalen-1-yl-ethyl)-3,3,3-trifluoro-propionamide] | 747 | –
Cc1ccc(C(=O)N[C@H](C(=O)NCCCC[C@@H](CO)N(CC(C)C)S(=O)(=O)c2ccc(N)cc2)C(c2ccccc2)c2ccccc2)cn1 [Example 112, (1S,5S)-N-(1-{5-[(4-Amino-benzenesulfonyl)-isobutyl-amino]-6-hydroxy-hexylcarbamoyl}-2,2-diphenyl-ethyl)-6-methyl-nicotinamide] | – | < 3.8
CC(C)CN([C@H](CO)CCCCNC(=O)[C@H](Cc1ccc2ccccc2c1)NC(=O)OC(C)(C)C)S(=O)(=O)c1ccc(F)c(N)c1 [Example 90, (1S,5S)-(1-{5-[(3-Amino-4-fluoro-benzenesulfonyl)-isobutyl-amino]-6-hydroxy-hexylcarbamoyl}-2-naphthalen-2-yl-ethyl)-carbamic Acid tert-Butyl Ester] | – | 4
